How the values were obtained:
Assay type in all cases: functional, cell-based
[1] = test system: MDA-MB-231; assay: Antiproliferative activity against human MDA-MB-231 cells assessed as reduction in cell viability incubated for 24 hrs by MTT assay; conditions: MDA-MB-231, 24 h
[2] = test system: SK-BR-3; assay: Antiproliferative activity against human SK-BR-3 cells assessed as reduction in cell viability incubated for 24 hrs by MTT assay; conditions: SK-BR-3, 24 h
[3] = test system: MCF-10A; assay: Antiproliferative activity against human MCF-10A cells assessed as reduction in cell viability incubated for 24 hrs by MTT assay

IC50 [1]: 15.1 µM | IC50 [2]: 9.3 µM
Compound: O=C(CCCCCCCCc1ccc2c(c1)OCO2)c1c(O)cccc1O
IC50 [3]: 82.6 µM

From ChEMBL document CHEMBL6083210, “Exploring apoptotic induction of malabaricone A in triple-negative breast cancer cells: an acylphenol phyto-entity isolated from the fruit rind of Myristica malabarica Lam” (RSC Med Chem, 2024)
